Data reported in patent US10201536B2, “Methods and pharmaceutical compositions for the treatment of bacterial infections in patients suffering from cirrhosis” (INSERM (INSTITUT NATIONAL DE LA SANTE ET DE LA RECHERCHE …, priority 2015, dated 2019).

Assays:
Gp91phox mRNA = Gp91phox mRNA quantification in neutrophils from cirrhotic patients; format: cell-based, human; details: patient neutrophils, 2.5 μg/ml, 30 min
Protocol: (§1) FIG. 3. The TLR7/8 agonist CL097 stimulated Gp91phox RNA production and synthesis in neutrophils from patients with advanced alcohol cirrhosis. Neutrophils from cirrhotic patients were treated in the absence (buffer) or presence of CL097 (2.5 μg/ml) for 30 min at 37° C. and the amount of Gp91phox mRNA was quantified and expressed as percentage of control (Buffer) (Panel A, n=6, *: P<0.05). The expression of Gp91phox was determined by western-blot assays and expressed as percentage±SEM of that of neutrophils of healthy donors (Panel B, n=4, *: P<0.05).
(§2) To determine whether this treatment improves NADPH oxidase activity, superoxyde production (02-°) was measured by the specific cytochrome C reduction assay, after cell stimulation with the bacterial peptide fMLP. […] Promisingly, these CL097 original properties were also observed in a model of ROS production in whole blood from patients (FIG. 5B).

Gp91phox [1] = assay: Gp91phox expression by western-blot in neutrophils from cirrhotic patients; format: cell-based, human; details: patient neutrophils, 2.5 μg/ml, 30 min
Protocol: as §1, §2

[2] = tested on: neutrophils from patients with advanced alcoholic cirrhosis; assay: Superoxide production, cytochrome C reduction assay, patient neutrophils; format: cell-based, human; details: 2.5 μg/ml 15 min, then 1 μM fMLP
Protocol: (§3) FIG. 4. The TLR7/8 agonist CL097 restored the production of superoxide in neutrophils from patients with advanced alcohol cirrhosis. Neutrophils from healthy donors and patients with advanced alcoholic cirrhosis were treated for 15 min with the TLR7/8 agonist (2.5 μg/ml), then with PBS or 1 μM fMLP. Results represent the mean of superoxide production±SEM expressed in nmole/10^6 cells (n=8, *: P <0.05).
as §2

[3] = tested on: neutrophils from healthy donors; assay: Superoxide production, cytochrome C reduction assay, healthy neutrophils; format: cell-based, human; details: 2.5 μg/ml 15 min, then 1 μM fMLP
Protocol: as §3, §2

[4] = tested on: purified neutrophils from patients with advanced alcohol cirrhosis; assay: ROS production, luminol-enhanced chemiluminescence, purified patient neutrophils; format: cell-based, human
Protocol: (§4) FIG. 5. The TLR7/8 agonist CL097 restored the production of reactive oxygen species by purified neutrophils and in whole blood from patients. ROS production was measured by the highly sensitive luminol-enhanced chemiluminescence assay with purified neutrophils (0.5×10^6 cells/450μl Hanks Balanced salt solution, Panel A) and with whole blood (20 μl in 450 μl PBS containing 0.120 mM calcium, Panel B) from patients with advanced alcohol cirrhosis. Cells were treated for 15 min with the TLR7/8 agonist […], then with 1 μM fMLP (Panel A). Results represent the peak of chemiluminescence response expressed in cpm (mean±SEM of 8 experiments).
as §2

[5] = tested on: whole blood from cirrhotic patients; assay: ROS production, luminol chemiluminescence, whole blood from cirrhotic patients; format: cell-based, human
Protocol: as §4
(§5) FIG. 6. […] Whole blood (20 μl) from healthy donors (Panel A) and cirrhotic patients (Panel B) were treated in 450 μL PBS containing 0.120 mM calcium), in the absence (control) and presence of R848 or CL097 (0.25-5 μg/ml) for 15 min. Cells were then stimulated with 1 μM fMLP. Results represent the peak of chemiluminescence response induced by fMLP and are expressed in cpm (mean±SEM of 4-6, *: P<0.05).
as §2

E coli [6] = assay: Bactericidal activity of neutrophils from cirrhotic patients against E coli; format: cell-based, human
Protocol: (§6) FIG. 7. Impaired bactericidal activity of neutrophils from cirrhotic patients and beneficial effects of the TLR7/8 agonist CL097. (A) Neutrophils from healthy volunteers (Control) and cirrhotic patients were incubated with E coli for 5 min, then treated or not (Buffer) with fMLP (1 μM) for 25 min. (B, C): Neutrophils incubated with bacteria were treated without (PBS) and with CL097 (1 μg/ml) for 2 min before stimulation with fMLP for 23 min. Cells were lysed and the number of bacterial colony was determined and expressed as percentage of that of control resting cells (A, n=6), or % of that of resting cells (PBS) in both cell populations (B, C, n=6); *P<0.05 (Data published in Boussif A et al, J Hepatol. 2016 64:1041-8. doi: 10.1016/j.jhep.2015.12.005. Epub 2015 Dec. 21).
(§7) Thus, TLR7/8 activation may provide beneficial effects on neutrophil host-defense activities in patients with cirrhosis.

E coli [7] = assay: Bactericidal activity of neutrophils from healthy volunteers against E coli; format: cell-based, human
Protocol: as §6, §7

[8] = tested on: whole blood from healthy donors; assay: ROS production, luminol chemiluminescence, whole blood from healthy donors; format: cell-based, human; details: 0.25-5 μg/ml 15 min, then 1 μM fMLP
Protocol: as §5, §2

cirrhotic BDL rats = assay: In vivo treatment of cirrhotic bile duct ligated (BDL) rats, ROS production in whole blood; design: species or system Wistar female rats; details: 2.2 mg/kg at day 21, parenteral administration, fMLP 1 μM ex vivo
Protocol: FIG. 11. In vivo treatment of cirrhotic rats by R848 reverses the deficient ROS production in whole blood. The common bile duct with Wistar female rats was ligated (BDL) under general anesthesia (10 mg Avertin, IP) close to the liver hilum immediately below the bifurcation as described previously (Mohammadi et al, Liver Int. 2009, 29(5):692-700). All surgical procedures were performed under sterile conditions. Blood was collected in Eppendorf tubes (approximately 0.5 ml in 10 mM EDTA) with a 1 inch hypodermic needle inserted into the vessel in the mid ventral surface of the tail. White blood cells were counted using a MS9-5V Analyser Counter (Melet Schloesing Laboratories). At day 21, the cirrhotic BDL rats were treated with R848 (2.2 mg/kg) as reported (McCluskie M J et al, Antiviral Res. 69:77-85, 2006). Control rats were not treated. The production of reactive oxygen species were measured in whole blood at the indicated day. Briefly, ROS production was continueously recorded in a thermostated bioluminometer (Berthold LB940) using 3 blood volumes (0.9, 1.8 and 3.75 μl) incubated at 37° C. in 0.5 ml Hanks balanced salt solution (HBSS) containing 10 μM luminol. Cells were treated with cytochalasin b (0.25 μg/ml) for 5-10 min then stimulated with the bacterial-derived peptide fMet-Leu-he (fMLP, 1 μM). ROS production represents the peak of chemiluminescence response in whole blood. […]

Gp91phox [9] = assay: gp91phox degradation in healthy PMN treated with purified elastase, western-blot; format: cell-based, human; details: 1 H at 37° C., 0.1 and 0.5 unit
Protocol: (§8) FIG. 8. Elastase induces the degradation of gp91phox and p22phox in healthy PMN. (A and B) Western-blot analysis and densitometric quantification of gp91phox and p22phox in healthy PMN treated in the absence or presence of elastase at 0.1 and 0.5 units for 1 hour. (C and D) Western-blot analysis densitometric quantification of gp91phox and […] in healthy PMN treated in the absence or presence of the elastase inhibitor (NEI) at 100 μM for 15 min before stimulation with fMLP (1 μM) for 45 min. (E) Western-blot analysis densitometric quantification of gp91phox in healthy PMN pretreated in the absence or presence of the elastase inhibitor (NEI) at 100 μM for 15 min before incubation for 45 min with a cell-free degranulation supernatant obtained from fMLP (1 μM, 2 min) stimulated PMN. Blots are representative of 4 experiments and densitometric analyses are cumulative and expressed as percentage of the actin level. […] (F) Sensorgrams of the PMN specific binding and dissociation to the anti-gp91phox antibody (7D5) coated to the CM3 sensorchip, analysed with the Biacore X100, as a function of time. […] Data are representative of 3 independent experiments are expressed as resonance unit (RU). (G) Flow cytometry quantification of the Gp91phox expression at the surface of PMN treated or not (Control) with 0.5 unit Elastase at 4° C. […]

p22phox = p22phox degradation in healthy PMN treated with purified elastase, western-blot; format: cell-based, human; details: 1 H at 37° C., 0.5 unit
Protocol: as §8

Gp91phox [10] = assay: Biacore SPR binding of intact PMN to anti-gp91phox 7D5 antibody; design: species or system human; details: PMN pretreated 1 H at 37° C. (0.5 units) and washed
Protocol: as §8

Gp91phox [11] = assay: Flow cytometry of 7D5 antibody binding to gp91phox at the PMN surface after elastase at 4° C.; format: cell-based, human; details: PMN treated at 4° C. for 1 H, 0.5 unit
Protocol: as §8

With `CCOCc1nc2c([nH]1)c(N)nc1ccccc12` [CL097] the “Gp91phox mRNA level” value (Gp91phox mRNA) was “increased”, the “expression of Gp91phox (western-blot)” value (Gp91phox [1]) was “restored” and the fMLP-induced superoxide production [2] was “potentiated fMLP-induced superoxide production to a level similar of that of neutrophils from healthy donors”. The “optimal production of superoxide” value [3] was “further increased”, the “fMLP-induced ROS production” value ([4]; agonist 15 min, then 1 μM fMLP) was “strongly potentiate” and the “ROS production by agonist by itself” value ([4]; agonist alone, 15 min) was “weak production of ROS”. For the same molecule, the “ROS production in whole blood (stimulation and potentiation properties)” value ([5]; whole blood from patients) was “also observed”, the “bacterial killing by agonist alone” value (E coli [6]; neutrophils from cirrhotic patients, 1 μg/ml) was “significant bacterial killing” and the fMLP-induced bacterial killing (E coli [6]; patients' neutrophils, 1 μg/ml 2 min before fMLP 23 min) was “strongly potentiated”. For the same molecule, the fMLP-induced bacterial killing (E coli [7]; control neutrophils, 1 μg/ml 2 min before fMLP 23 min) was “non significant increase” and the “bacterial killing by agonist alone” value (E coli [7]; neutrophils from controls, 1 μg/ml) was “significant bacterial killing”.
For `CCOCc1nc2c(N)nc3ccccc3c2n1CC(C)(C)O` [R848, 4-amino-2-ethoxymethyl-α,α-dimethyl-1H-imidazol[4,5-c]quinoline-1-ethanol], the “improvement of ROS production, potency compared with CL097” value ([5]; whole blood from cirrhotic patients, 0.25-5 μg/ml 15 min, then 1 μM fMLP) was “more potent than CL097”, the “improvement of ROS production, potency compared with CL097” value [8] was “more potent than CL097” and the “ROS production in whole blood of cirrhotic rats” value (cirrhotic BDL rats) was “reversed the deficient ROS production”.
For “elastase: purified elastase, a serine protease produced by neutrophils”, the gp91phox degradation (Gp91phox [9]) was “approximately 50%”, the p22phox degradation (p22phox) was “degradation of p22phox was observed” and the “PMN binding to 7D5 antibody (SPR)” value (Gp91phox [10]) was “markedly reduced”. For the same molecule, the “7D5 antibody binding (FACS scan)” value (Gp91phox [11]) was “strongly inhibited”.
